Test results taken from article PMC11555231 (Nature Communications, 2024).
Bridge positions count the residues as written; N and C are the ends. Square brackets hold non-standard residues; d marks the D form. Peptide text beside a SMILES is read from it. Cit = NC(=O)NCCC[C@H](N)C(=O)O

Columns and labels:
hPADI4-stable mES cells = assay: High content microscopy of citrullinated histone H3 (H3Cit) in hPADI4-stable mES cells; format: cell-based, mouse; details: KSR/2i 3 h, Fig. S7B
Method: HaLo-GFP-mito HeLa cells were grown in DMEM (Gibco) supplemented with 10% foetal bovine serum (FBS), penicillin/streptomycin (100 µg/ml) and puromycin (1 µg/ml) at 37 °C, 5% CO2. HaLo-GFP-mito HeLa cell line[82] was profiled by short tandem repeat analysis (STR) and tested negative for mycoplasma by the Cell Services Technology Platform at the Francis Crick Institute. E14 –mouse embryonic stem cells (Cambridge Stem Cell Institute, UK) were cultured in plates coated with 1% gelatine in GMEM supplemented with 10% foetal calf serum (FCS) batch-tested for ES cell culture (Gibco), 0.1 mM non-essential amino acids, 2 mM L-glutamine, 1 mM sodium pyruvate, 0.1 mM β-mercaptoethanol and 50 ng/mL leukaemia inhibitory factor (LIF) (ESGRO, Millipore). For PADI4 activation, cells were cultured in GMEM containing 10% knockout serum replacement (KSR, Life Technologies), 1% FCS batch-tested for ES cell culture (Gibco), 0.1 mM non-essential amino acids, L-glutamine, 1 mM sodium pyruvate, 0.1 mM β-mercaptoethanol, 50 ng/mL LIF (ESGRO, Millipore), 1 μM PD0325901 (AxonMedChem) and 3 μM CHIR99021 (AxonMedChem). For the generation of E14 mES stably expressing human PADI4 (hPADI4-stable), human PADI4 cDNA was inserted into ES E14 cells using the piggyBac transposon system. The Gateway system was used to clone human PADI4 into the piggyBac vector using primers PADI4_AttB1_F and PADI4_AttB2_R (Table S4). pPB-CAG-CTRL (empty vector) or pPB-CAG-hPADI4 vectors […] were transfected with the piggyBac transposase (pPBase) expression vector, pCAGPBase […], by lipofection according to the manufacturer’s instructions (Lipofectamine 2000, Invitrogen). E14 cells constitutively expressing the hygromycin resistance gene and human PADI4 were selected and expanded in media containing […] hygromycin.
E14 cells were seeded onto 96-well PerkinElmer cell carrier ultra plates (Phenoplates) coated with 0.1% gelatine, at 25,000 cells per well and grown overnight at 37 °C, 5% CO2. Outer wells were excluded but medium was added to minimise any edge effects. […]

HaLo-GFP-mito HeLa cells = assay: Chloroalkane penetration assay (CAPA); format: in vitro ADME; details: for CP50: 4 h in Opti-MEM, 37 °C, chase HaLo-Tag TMR ligand 5 µM 15 min, mean ± SEM of three independent experiments; for CP50 at 4 °C relative to 37 °C: peer review response
Method: Following the addition of chloroacetyl-NHS to the N-terminal amino group, Cys(mmt) was selectively deprotected using 1% TFA, 5% triisopropylsilane in DCM (30 min, RT). Peptides were then cyclised on resin using 2% diisopropylethylamine in DMF overnight. Following cyclisation, Lys(ivDde) was deprotected using 2% hydrazine in DMF. The resin was then washed (3 x DCM, 3 x DMF) before on-resin coupling of chloroalkane carboxylic acid was performed on the lysine side chain using Hexafluorophosphate Azabenzotriazole Tetramethyl Uronium / diisopropylethylamine in DMF for 2 h. Global deprotection and purification were then carried out as described above. Chloroalkane carboxylate was synthesised as previously described.
CAPA assays were performed following the protocol published in ref. [51]. In brief, 40,000 HaLo- GFP-mito HeLa cells were seeded in a 96-well plate. Twenty-four hours later, cells were treated with different concentrations of chloroalkane-tagged peptides (100 µM to 200 nM for PADI4_3 and PADI4_3i and 50 µM to 100 nM for PADI4_11 and PADI4_11i) for 4 h in Opti-MEM. Media containing peptides was then removed, and cells were incubated with Opti-MEM (Gibco) for 15 min. After that time, the wash was removed, and cells were chased with HaLo-Tag TMR ligand (5 µM, Promega) in Opti-MEM for 15 min. The ligand was then removed, and cells were incubated with Opti-MEM for 30 min. Cells were then trypsinised, resuspended in phosphate-buffered saline (PBS) with 0.5% FBS and analysed using a benchtop flow cytometer (MACSQuant® VYB Flow cytometer Milteny Biotec). For each well, 10000 GFP positive single cells were analysed (gating workflow shown in Supplementary Fig. 18), and TMR mean fluorescence was normalised against a positive control (cells treated with HaLo-Tag TMR ligand but no peptide) and a negative control (non-treated cells). Analysis was performed using FlowJo (LCC) software and Prism GraphPad (Dotmatics). Data were presented as the average ± standard error of three independent replicates.

[1] = system: hPADI4 expressing mES cells; assay: Cytotoxicity by live cell imaging with Incucyte Cytotox Green Dye
Method: Live cell imaging was performed using an Incucyte® imaging system (Sartorius), using Incucyte® Cytotox Green Dye as per the manufacturer’s instructions.
E. Assessment of cytotoxicity by live cell imaging with Incucyte® Cytotox
Green Dye, as a measure for cell death. hPADI4 expressing mES cells treated with 1 µM
Assessment of cytotoxicity by live cell imaging with Incucyte® Cytotox Green Dye, as a read-
vehicle (0.1%), and imaged for 48 h.

hPADI4 [2] = target: T1, hPADI4 (Homo sapiens, UniProt Q9UM07); assay: COLDER assay, inhibition of PADI4 at 10 mM CaCl2 (substrate BAEE); format: biochemical
T1 construct: PADI4 (residues 1–663); Avi-Tag (unbiotinylated); made in house; host or cells: E. coli BL21(DE3) without BirA
T1 sequence (Q9UM07 whole entry, the tested form may be a part): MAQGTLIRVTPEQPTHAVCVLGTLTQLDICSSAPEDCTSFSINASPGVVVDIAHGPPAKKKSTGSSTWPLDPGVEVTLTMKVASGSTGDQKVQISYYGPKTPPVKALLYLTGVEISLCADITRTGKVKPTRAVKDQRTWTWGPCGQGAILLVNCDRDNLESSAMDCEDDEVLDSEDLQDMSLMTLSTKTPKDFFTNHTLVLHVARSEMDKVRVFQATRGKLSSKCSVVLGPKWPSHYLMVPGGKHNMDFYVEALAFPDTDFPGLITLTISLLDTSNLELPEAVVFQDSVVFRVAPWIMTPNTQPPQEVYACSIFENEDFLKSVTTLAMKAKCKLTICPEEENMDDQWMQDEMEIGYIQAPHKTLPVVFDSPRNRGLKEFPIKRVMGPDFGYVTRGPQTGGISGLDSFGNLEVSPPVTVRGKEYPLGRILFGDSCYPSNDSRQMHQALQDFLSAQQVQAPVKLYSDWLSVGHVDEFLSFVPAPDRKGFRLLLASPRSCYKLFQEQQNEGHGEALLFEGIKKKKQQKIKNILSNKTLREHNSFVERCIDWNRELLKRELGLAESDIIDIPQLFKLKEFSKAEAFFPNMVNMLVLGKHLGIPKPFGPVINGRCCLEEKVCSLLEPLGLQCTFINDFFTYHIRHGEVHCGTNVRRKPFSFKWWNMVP
Method: (§1) PADI4 activity was assessed using the COLDER assay[43] that measures the formation of urea-containing compounds (e.g. citrulline). The reaction was carried out in a 96-well plate with a final volume of 50 µl. His-PADI4 (50 nM) was incubated with different concentrations of peptides (100 µM to 0.3 nM) in the presence of CaCl2 (from 10 mM to 0.001 mM as specified) for 10 min. The reaction was started by the addition of 10 mM N^α-Benzoyl-L-arginine ethyl ester hydrochloride (BAEE, Merck). After 30 min, the reaction was quenched with EDTA (50 mM final concentration). For colour development, 200 µl of COLDER solution, consisting of 1 volume of solution A (80 mM diacetyl monoxime/2,3-butanedione monoxime (Merck) and 2 mM thiosemicarbazide (Acros Organics)) and 3 volumes of solution B (3 M H3PO4, 6 M H2SO4 and 2 mM NH4Fe(SO4)2) were added to each well and the mixture was heated at 95 °C for 15 min. After cooling to RT, absorbance at 540 nm was measured, and citrulline concentration was determined using a standard curve of citrulline standards. All studies were performed within the linear range of PADI4 activity, and data analysis was performed using Prism GraphPad (Dotmatics). Data are presented as the average ± standard error of the mean from at least two independent replicates.

hPADI4 [3] = target: T1, hPADI4; assay: COLDER assay, activation of PADI4 (calcium titration at fixed peptide, or peptide titration at 0.1 mM CaCl2); format: biochemical; details: 30 µM peptide
Method: as §1

[4] = CAPA, chloroalkane-tagged peptide, 4 °C, flow cytometry, mean ± SEM of two (PADI4_3) or three (PADI4_11) independent experiments
[5] = CAPA, chloroalkane-tagged peptide, flow cytometry

## NC(=O)[C@H](CCCN=C(N)CCl)NC(=O)c1ccccc1 [Cl-amidine, reference compound]
hPADI4-stable mES cells
  mean H3Cit intensity with increasing doses of inhibitor: dose-response read-outs

## CC(C)C[C@H](NC(=O)[C@H](CCC(N)=O)NC(=O)[C@H](CC(C)C)NC(=O)[C@@H](NC(=O)[C@H](CCC(N)=O)NC(=O)[C@H](CCCNC(=N)N)NC(=O)[C@H](Cc1ccc(O)cc1)NC(=O)[C@H](CCCNC(=N)N)NC(=O)[C@@H]1CSCC(=O)N[C@@H](Cc2ccc(O)cc2)C(=O)N[C@@H](CCC(=O)O)C(=O)N[C@@H](CO)C(=O)N1)C(C)C)C(N)=O [PADI4_11] ({CH2CO}-YESCRYRQVLQL-NH2; thioether N-4)
HaLo-GFP-mito HeLa cells; [4]
  CP50 at 4 °C: 10.8 ± 4.7 µM
HaLo-GFP-mito HeLa cells; [5]
  CP50: 3.1 ± 1.2 µM
HaLo-GFP-mito HeLa cells; CAPA
  CP50 at 4 °C relative to 37 °C: 4 times
[1]; 25µM peptide, 48 h
  cytotoxicity, live cell imaging of cell death: not toxic to the cells

## CC[C@H](C)[C@@H]1NC(=O)[C@H](CCCNC(=N)N)NC(=O)[C@H](Cc2ccc(O)cc2)NC(=O)[C@H](Cc2ccccc2)NC(=O)[C@@H](Cc2ccc(O)cc2)NC(=O)CSC[C@@H](C(=O)NCC(N)=O)NC(=O)[C@H](CCC(N)=O)NC(=O)[C@H](Cc2ccc(O)cc2)NC(=O)[C@H](CC(N)=O)NC(=O)[C@@H]2CCCN2C(=O)[C@H](Cc2ccc(O)cc2)NC(=O)[C@H](Cc2c[nH]c3ccccc23)NC(=O)[C@H](Cc2ccccc2)NC(=O)CNC1=O [PADI4_1] ({CH2CO}-[dY]FYRIGFWYPNYQCG-NH2; thioether N-14)
hPADI4 [2]; COLDER, 10 mM CaCl2, peptide 10–0.0003 µM
  PADI4 inhibition (in words): No PADI4 inhibition was observed
hPADI4 [3]
  change in K50(Ca2+) (in words): little change
hPADI4 [3]; Fig. 4A, COLDER, CaCl2 10–0.003 mM, mean ± SEM of three independent replicates
  K50(Ca2+) of PADI4 in presence of peptide: 0.359 ± 0.026 mM

## N=C(N)NCCC[C@@H]1NC(=O)[C@@H](Cc2ccc(O)cc2)NC(=O)CSC[C@@H](C(=O)NCC(N)=O)NC(=O)[C@H](Cc2ccc(O)cc2)NC(=O)[C@H](CCCCN)NC(=O)[C@@H]2CCCN2C(=O)[C@H](Cc2c[nH]cn2)NC(=O)[C@H](CCCNC(N)=O)NC(=O)[C@H](Cc2ccc(O)cc2)NC(=O)[C@H](Cc2c[nH]cn2)NC(=O)[C@H](Cc2c[nH]cn2)NC(=O)[C@H](CC(=O)O)NC1=O [PADI4_3.R7Cit] ({CH2CO}-[dY]RDHHY[Cit]HPKYCG-NH2; thioether N-12)
hPADI4 [2]; average of 3 replicates (Stdev in separate column), COLDER assay, 10 mM CaCl2, substrate BAEE, source data of Figure 2F, read-out: IC50s Average
  IC50: 83.2 nM

## N=C(N)NCCC[C@@H]1NC(=O)[C@H](Cc2ccc(O)cc2)NC(=O)[C@H](Cc2c[nH]cn2)NC(=O)[C@H](Cc2c[nH]cn2)NC(=O)[C@H](CC(=O)O)NC(=O)[C@H](CCCNC(=N)N)NC(=O)[C@@H](Cc2ccc(O)cc2)NC(=O)CSC[C@@H](C(=O)NCC(N)=O)NC(=O)[C@H](Cc2ccc(O)cc2)NC(=O)[C@H](CCCCN)NC(=O)[C@@H]2CCCN2C(=O)[C@H](Cc2c[nH]cn2)NC1=O [PADI4_3] ({CH2CO}-[dY]RDHHYRHPKYCG-NH2; thioether N-12)
HaLo-GFP-mito HeLa cells; CAPA at 4C, run 220915, in µM (unit assumed)
  CP50 at 4 °C: 11.21
HaLo-GFP-mito HeLa cells; CAPA at 4C, run 240501, in µM (unit assumed)
  CP50 at 4 °C: 8.235
HaLo-GFP-mito HeLa cells; [4]
  CP50 at 4 °C: 9.7 ± 2.1 µM
HaLo-GFP-mito HeLa cells; [5]
  CP50: 1.4 ± 0.1 µM
HaLo-GFP-mito HeLa cells; CAPA
  CP50 at 4 °C relative to 37 °C: 7 times
[1]; 1 µM peptide, imaged for 24h
  cytotoxicity: No cytotoxicity was observed
